In assay [1] the target is human EGFR (native sequence) (Homo sapiens, UniProt P00533). The assay can be described thus: Kinase inhibitory activity against human EGFR (native sequence). Conditions: human EGFR native sequence; 10 μM ATP; read-out: IC50 for kinase inhibition, EGFR. The class given is biochemical. A digest of the protocol: (§1)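 ATP was held at 10 μM while inhibition was measured across a 10-point series capped at 3 μM, single replicates.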

The next assay concerns the target EGFR L858R (Homo sapiens, UniProt P00533, L858R). As to the kind of experiment: Kinase inhibitory activity against EGFR bearing the L858R mutation. The class given is biochemical. The following applies: EGFR L858R; 10 μM ATP; read-out: IC50 for kinase inhibition, EGFR L858R. A digest of the protocol:
as §1

For another assay, the target named is EGFR L858R/T790M (Homo sapiens, UniProt P00533, L858R/T790M). As to the kind of experiment: Kinase inhibitory activity against EGFR bearing the L858R/T790M double mutation. The class given is biochemical. Conditions: EGFR L858R/T790M double mutation; 10 μM ATP; read-out: IC50 for kinase inhibition, EGFR L858R T790M. A digest of the protocol:
as §1

The target in assay [2] is T1, BaF3 cells expressing the target EGFR mutations (Homo sapiens, UniProt P00533, T790M, cells depend on it, form not given).
T1 construct: IC50, BAF3 EGFR DEL T790M PURO POOL; other: BAF3 EGFR DEL T790M PURO POOL cells, MTT; other: BAF3 EGFR DEL T790M PURO POOL cells; MTT
T1 sequence (P00533 with tags, fused parts or gaps DEL746-750/T790M, form open): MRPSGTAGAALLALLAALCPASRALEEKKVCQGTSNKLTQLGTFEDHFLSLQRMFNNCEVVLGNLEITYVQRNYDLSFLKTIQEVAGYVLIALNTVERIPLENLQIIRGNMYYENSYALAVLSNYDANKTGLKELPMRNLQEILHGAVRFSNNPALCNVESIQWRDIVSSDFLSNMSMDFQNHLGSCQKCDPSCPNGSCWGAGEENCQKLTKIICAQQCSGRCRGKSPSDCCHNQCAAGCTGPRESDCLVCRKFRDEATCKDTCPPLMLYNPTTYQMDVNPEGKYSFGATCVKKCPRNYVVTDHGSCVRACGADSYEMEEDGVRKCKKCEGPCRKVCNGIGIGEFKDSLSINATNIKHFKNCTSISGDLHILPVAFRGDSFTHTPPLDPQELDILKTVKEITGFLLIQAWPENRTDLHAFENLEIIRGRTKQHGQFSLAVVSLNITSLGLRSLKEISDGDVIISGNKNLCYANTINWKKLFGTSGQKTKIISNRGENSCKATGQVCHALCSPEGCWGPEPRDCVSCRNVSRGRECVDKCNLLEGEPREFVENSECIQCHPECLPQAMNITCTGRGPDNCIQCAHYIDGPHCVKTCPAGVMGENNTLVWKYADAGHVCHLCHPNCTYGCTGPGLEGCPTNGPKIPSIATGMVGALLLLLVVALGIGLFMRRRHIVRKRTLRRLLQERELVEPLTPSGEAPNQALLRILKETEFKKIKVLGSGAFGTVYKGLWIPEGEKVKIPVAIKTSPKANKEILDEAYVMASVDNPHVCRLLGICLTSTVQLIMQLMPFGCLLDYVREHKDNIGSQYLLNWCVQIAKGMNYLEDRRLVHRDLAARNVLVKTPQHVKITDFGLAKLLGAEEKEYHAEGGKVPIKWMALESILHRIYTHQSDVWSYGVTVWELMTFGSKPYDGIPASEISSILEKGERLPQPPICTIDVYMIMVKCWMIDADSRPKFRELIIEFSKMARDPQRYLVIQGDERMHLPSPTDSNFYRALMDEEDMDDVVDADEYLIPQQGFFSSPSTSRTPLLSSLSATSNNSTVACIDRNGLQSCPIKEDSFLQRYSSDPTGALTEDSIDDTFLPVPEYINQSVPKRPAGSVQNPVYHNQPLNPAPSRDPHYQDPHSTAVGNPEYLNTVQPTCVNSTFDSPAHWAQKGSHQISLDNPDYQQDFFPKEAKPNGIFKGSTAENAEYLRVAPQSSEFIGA
As to the kind of experiment: Antiproliferative activity (MTT) against BaF3 cells expressing the target EGFR mutations. The class given is cell-based. Conditions: BAF3 EGFR DEL T790M PURO POOL cells, read-out: IC50, BAF3 EGFR DEL T790M PURO POOL. A digest of the protocol: (§2)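 MTT read-out; BaF3 lines carrying EGFR mutations vs wildtype-EGFR BaF3 control.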

In assay [3] the target is T2, BaF3 cells expressing the target EGFR mutations (Homo sapiens, UniProt P00533, T790M/L858R, cells depend on it).
T2 construct: IC50, BAF3 EGFR L858R-T790M PURO POOL; other: BAF3 EGFR L858R-T790M PURO POOL cells, MTT; IC50, BAF3 EGFR L858R-T790M PURO POOL; other: BAF3 EGFR L858R-T790M PURO POOL cells; MTT
T2 sequence (P00533 whole entry T790M/L858R): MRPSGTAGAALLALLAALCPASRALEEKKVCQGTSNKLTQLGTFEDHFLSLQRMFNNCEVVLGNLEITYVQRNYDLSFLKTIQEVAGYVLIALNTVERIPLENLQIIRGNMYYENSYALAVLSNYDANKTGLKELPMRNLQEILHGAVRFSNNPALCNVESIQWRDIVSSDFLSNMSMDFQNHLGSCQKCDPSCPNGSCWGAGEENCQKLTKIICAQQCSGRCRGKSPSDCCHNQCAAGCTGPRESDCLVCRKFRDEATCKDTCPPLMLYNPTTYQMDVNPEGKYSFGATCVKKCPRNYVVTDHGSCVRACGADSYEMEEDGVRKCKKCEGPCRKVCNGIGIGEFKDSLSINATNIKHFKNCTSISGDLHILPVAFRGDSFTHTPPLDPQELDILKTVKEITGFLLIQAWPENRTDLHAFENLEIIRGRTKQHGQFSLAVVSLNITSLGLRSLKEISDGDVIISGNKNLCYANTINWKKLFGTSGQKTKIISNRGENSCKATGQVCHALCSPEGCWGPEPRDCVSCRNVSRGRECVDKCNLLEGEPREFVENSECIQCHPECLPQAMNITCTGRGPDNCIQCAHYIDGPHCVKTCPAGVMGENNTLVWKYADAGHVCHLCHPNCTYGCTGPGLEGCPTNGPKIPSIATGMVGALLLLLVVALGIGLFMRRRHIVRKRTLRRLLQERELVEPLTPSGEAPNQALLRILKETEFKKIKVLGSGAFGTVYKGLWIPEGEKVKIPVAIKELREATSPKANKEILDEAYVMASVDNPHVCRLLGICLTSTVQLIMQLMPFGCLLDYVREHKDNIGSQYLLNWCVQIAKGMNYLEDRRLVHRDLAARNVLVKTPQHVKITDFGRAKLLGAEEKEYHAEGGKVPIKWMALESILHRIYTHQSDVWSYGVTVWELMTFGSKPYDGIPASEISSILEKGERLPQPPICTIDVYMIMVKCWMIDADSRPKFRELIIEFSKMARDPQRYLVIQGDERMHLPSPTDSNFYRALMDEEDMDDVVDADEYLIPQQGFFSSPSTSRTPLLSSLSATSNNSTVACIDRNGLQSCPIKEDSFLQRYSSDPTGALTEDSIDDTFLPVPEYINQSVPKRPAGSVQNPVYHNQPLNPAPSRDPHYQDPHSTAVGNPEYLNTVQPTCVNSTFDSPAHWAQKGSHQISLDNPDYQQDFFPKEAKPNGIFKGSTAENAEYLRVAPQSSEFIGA
The description is as above. The following applies: BAF3 EGFR L858R-T790M PURO POOL cells, read-out: IC50, BAF3 EGFR L858R-T790M PURO POOL. The class given is cell-based. A digest of the protocol:
as §2

Assay [4] relates to BaF3 cells expressing wildtype EGFR. The assay can be described thus: Antiproliferative activity (MTT) against control BaF3 cells expressing wildtype EGFR. Conditions: Mus musculus, BAF3 PARENTAL cells (control). The class given is cell-based. The gist of the method: as §2

EGFR L858R, sequence (P00533 25-1210 L858R): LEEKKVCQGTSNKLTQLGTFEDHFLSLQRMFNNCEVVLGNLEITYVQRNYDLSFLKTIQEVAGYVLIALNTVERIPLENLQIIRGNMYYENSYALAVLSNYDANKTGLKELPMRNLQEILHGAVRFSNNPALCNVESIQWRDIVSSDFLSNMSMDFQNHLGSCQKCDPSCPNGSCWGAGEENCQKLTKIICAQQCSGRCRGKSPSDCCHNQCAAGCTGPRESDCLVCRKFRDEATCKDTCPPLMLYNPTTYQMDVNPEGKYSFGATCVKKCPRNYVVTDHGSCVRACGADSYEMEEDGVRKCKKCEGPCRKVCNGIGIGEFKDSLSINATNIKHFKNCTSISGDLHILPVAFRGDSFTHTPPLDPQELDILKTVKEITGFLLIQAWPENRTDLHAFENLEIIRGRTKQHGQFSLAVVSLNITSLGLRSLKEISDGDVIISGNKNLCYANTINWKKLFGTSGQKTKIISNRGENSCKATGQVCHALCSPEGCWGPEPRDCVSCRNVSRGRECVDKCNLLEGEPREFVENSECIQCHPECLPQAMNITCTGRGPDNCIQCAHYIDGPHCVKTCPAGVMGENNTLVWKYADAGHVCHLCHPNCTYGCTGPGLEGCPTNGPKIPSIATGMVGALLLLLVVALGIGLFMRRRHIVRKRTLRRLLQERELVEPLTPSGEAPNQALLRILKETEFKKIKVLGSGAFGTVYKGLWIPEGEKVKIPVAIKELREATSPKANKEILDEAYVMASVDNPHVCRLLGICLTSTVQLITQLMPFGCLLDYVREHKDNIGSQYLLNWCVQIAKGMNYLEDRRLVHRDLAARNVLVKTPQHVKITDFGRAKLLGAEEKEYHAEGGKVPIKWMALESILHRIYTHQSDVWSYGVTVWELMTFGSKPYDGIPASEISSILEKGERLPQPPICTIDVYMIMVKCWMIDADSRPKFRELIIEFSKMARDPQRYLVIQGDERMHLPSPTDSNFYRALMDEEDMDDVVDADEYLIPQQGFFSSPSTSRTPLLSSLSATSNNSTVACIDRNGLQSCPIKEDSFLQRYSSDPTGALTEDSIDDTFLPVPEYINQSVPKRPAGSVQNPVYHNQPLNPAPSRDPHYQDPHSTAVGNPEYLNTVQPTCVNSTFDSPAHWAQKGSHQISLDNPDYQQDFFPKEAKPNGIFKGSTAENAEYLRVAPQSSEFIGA
human EGFR (native sequence), sequence (P00533 25-1210): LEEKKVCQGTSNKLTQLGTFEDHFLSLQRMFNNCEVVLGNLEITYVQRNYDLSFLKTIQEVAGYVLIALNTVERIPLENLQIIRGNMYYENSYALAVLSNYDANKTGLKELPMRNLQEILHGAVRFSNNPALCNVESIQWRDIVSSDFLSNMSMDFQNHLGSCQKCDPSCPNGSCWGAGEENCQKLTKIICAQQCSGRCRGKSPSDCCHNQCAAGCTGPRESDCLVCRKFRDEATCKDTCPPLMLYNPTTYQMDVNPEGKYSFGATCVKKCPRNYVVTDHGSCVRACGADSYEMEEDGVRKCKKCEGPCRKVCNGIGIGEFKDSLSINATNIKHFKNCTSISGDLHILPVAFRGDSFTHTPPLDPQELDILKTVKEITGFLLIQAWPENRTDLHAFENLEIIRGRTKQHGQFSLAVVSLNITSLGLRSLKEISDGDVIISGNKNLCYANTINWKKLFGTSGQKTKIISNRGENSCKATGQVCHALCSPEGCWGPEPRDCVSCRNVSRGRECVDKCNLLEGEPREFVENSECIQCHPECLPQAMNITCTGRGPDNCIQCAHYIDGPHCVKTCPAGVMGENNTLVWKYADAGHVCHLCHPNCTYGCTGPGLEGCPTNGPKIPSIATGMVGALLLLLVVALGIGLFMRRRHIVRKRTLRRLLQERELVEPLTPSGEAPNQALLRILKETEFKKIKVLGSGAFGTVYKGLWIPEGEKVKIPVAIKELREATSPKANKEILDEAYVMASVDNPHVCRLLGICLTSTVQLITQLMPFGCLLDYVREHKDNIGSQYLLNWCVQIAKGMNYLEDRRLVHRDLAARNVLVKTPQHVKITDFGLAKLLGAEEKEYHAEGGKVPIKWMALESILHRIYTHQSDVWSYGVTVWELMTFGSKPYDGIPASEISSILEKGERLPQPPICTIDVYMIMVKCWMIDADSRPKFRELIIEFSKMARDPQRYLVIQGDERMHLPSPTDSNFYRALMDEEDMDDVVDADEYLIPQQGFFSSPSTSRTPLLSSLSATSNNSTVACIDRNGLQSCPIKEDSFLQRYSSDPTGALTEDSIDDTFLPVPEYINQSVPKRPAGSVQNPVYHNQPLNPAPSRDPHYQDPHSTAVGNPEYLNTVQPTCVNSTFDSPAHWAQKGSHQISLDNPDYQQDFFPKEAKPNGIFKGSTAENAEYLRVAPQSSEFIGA

For the compound `CC#CC(=O)Nc1cc(Nc2ncc(Cl)c(Nc3ccccc3P(C)(C)=O)n2)c(OC)cc1OCCN1CCCC1` [Example 80, N-(5-((5-chloro-4-((2-(dimethylphosphoryl)phenyl)amino)pyrimidin-2-yl)amino)-4-methoxy-2-(2-(pyrrolidin-1-yl)ethoxy)phenyl)but-2-ynamide], the IC50 in assay [1] is at least 0.25 µM; on EGFR L858R, under 0.05 µM; at EGFR L858R/T790M, under 0.05 µM; in assay [4] it was at least 0.25 µM. The GI50 in assay [2] was under 0.05 µM; in assay [3] it was 0.101 to 0.25 µM.
Regarding `C=CC(=O)Nc1cc(Nc2ncc(Cl)c(Nc3ccccc3P(C)(C)=O)n2)c(OC)cc1O[C@@H]1CCCN(C)C1` (single isomer, unassigned) [Example 14], the IC50 in assay [1] is under 0.05 µM; at EGFR L858R, under 0.05 µM; at EGFR L858R/T790M, under 0.05 µM; in assay [4], at least 0.25 µM. Besides, the GI50 in assay [2] and in assay [3] was under 0.05 µM each time.
In the case of `C=CC(=O)Nc1cc(Nc2ncc(Cl)c(Nc3ccc(OCCN4CCCC4)cc3P(C)(C)=O)n2)c(OC)cc1F` [Example 98, N-(5-((5-chloro-4-((2-(dimethylphosphoryl)-4-(2-(pyrrolidin-1-yl)ethoxy)phenyl)amino)pyrimidin-2-yl)amino)-2-fluoro-4-methoxyphenyl)acrylamide], the IC50 in assay [1] was under 0.05 µM; on EGFR L858R, under 0.05 µM; at EGFR L858R/T790M, under 0.05 µM; in assay [4] it was at least 0.25 µM. Moreover, the GI50 in assay [2] and in assay [3] was under 0.05 µM each time.
In the case of `C=CC(=O)Nc1cc(Nc2ncc(Cl)c(Nc3ccccc3P(C)(C)=O)n2)c(OC)cc1N1CCC(N2CCCCC2)C1` (stereo not drawn) [Example 33, N-(5-((5-chloro-4-((2-(dimethylphosphoryl)phenyl)amino)pyrimidin-2-yl)amino)-4-methoxy-2-(3-(piperidin-1-yl)pyrrolidin-1-yl)phenyl)acrylamide], the IC50 in assay [1] is under 0.05 µM; on EGFR L858R, under 0.05 µM; at EGFR L858R/T790M, under 0.05 µM; in assay [4] it was at least 0.25 µM. Moreover, the GI50 in assay [2] and in assay [3] was under 0.05 µM each time.
In the case of `COc1ccc(NC(=O)/C=C/C(=O)N2CCN(C)CC2)cc1Nc1ncc(Cl)c(Nc2ccccc2P(C)(C)=O)n1` [Example 59, (E)—N-(3-((5-chloro-4-((2-(dimethylphosphoryl)phenyl)amino)pyrimidin-2-yl)amino)-4-methoxyphenyl)-4-(4-methylpiperazin-1-yl)-4-oxobut-2-enamide], the IC50 was under 0.05 µM in assay [1], under 0.05 µM at EGFR L858R, under 0.05 µM on EGFR L858R/T790M and at least 0.25 µM in assay [4]. Besides, the GI50 in assay [2] was 0.101 to 0.25 µM; in assay [3], at least 0.25 µM.
With `COc1cc(F)c(NC(=O)/C=C/Cl)cc1Nc1ncc(Cl)c(Nc2ccccc2P(C)(C)=O)n1` [Example 85, (E)-3-chloro-N-(5-((5-chloro-4-((2-(dimethylphosphoryl)phenyl)amino)pyrimidin-2-yl)amino)-2-fluoro-4-methoxyphenyl)acrylamide], the IC50 in assay [1] is under 0.05 µM; at EGFR L858R, under 0.05 µM; at EGFR L858R/T790M, under 0.05 µM; in assay [4], at least 0.25 µM. Besides, the GI50 in assay [2] and in assay [3] was under 0.05 µM each time.
`C=CC(=O)Nc1cc(Nc2ncc(Cl)c(Nc3ccccc3P(C)(C)=O)n2)c(OC)cc1OCC1CCOCC1` [Example 6, N-(5-((5-chloro-4-((2-(dimethylphosphoryl)phenyl)amino)pyrimidin-2-yl)amino)-4-methoxy-2-((tetrahydro-2H-pyran-4-yl)methoxy)phenyl)acrylamide]: the IC50 was at least 0.25 µM in assay [1], under 0.05 µM on EGFR L858R, 0.05 to 0.1 µM on EGFR L858R/T790M and at least 0.25 µM in assay [4]. In addition, the GI50 in assay [2] was in the range of 0.05 to 0.1 µM; in assay [3], 0.101 to 0.25 µM.

What is called IC50 is the concentration needed to halve the response being measured.

The record behind these values is US9834571B2, “Compounds for inhibiting cell proliferation in EGFR-driven cancers” (ARIAD Pharmaceuticals, Inc., priority 2012, dated 2017).
